Earlier results as cited in patent publication US20190320688A1, “COMPOSITIONS FOR PREVENTING AND RELIEVING HANGOVER & LIVER DAMAGE WHICH OCCUR DUE TO ALCOHOL CONSUMPTION” (priority 2018, published 2019).

Settings: biological activities listed in background table

Substance: Methylcurcumin
- Activity: L. amazonensis
